Data reported in US20150044211A1, “COMBINATION OF A 6-OXO-1,6-DIHYDRO-PYRIDAZINE DERIVATIVE HAVING ANTI-CANCER ACTIVITY WITH OTHER ANTI-TUMOR COMPOUNDS” (MERCK PATENT GMBH, priority 2012, published 2015).

What was measured:
[1] = Body weight change / tolerability in the NCI-H441 xenograft study; conditions: Day 7
Description: (§1) Method: Female CD-1 nude mice (6-8 week old) where subcutaneously injected with human NCI-H441 NSCLC tumor cells and were divided into 4 groups (ten animals in one group) after the tumors were established. Respective groups were administered orally with the 3-(1-{3-[5-(1-Methyl-piperidin-4-ylmethoxy)-pyrimidin-2-yl]-benzyl}-6-oxo-1,6-dihydro-pyridazin-3-yl)-benzonitrile hydrochloride hydrate (100 mg/kg—5 days on and 2 days off) or with erlotinib (initial 40 mg/kg followed by 30 mg/kg (MTD)-4 days on and 4 days off followed by 3 days on and 4 days off) alone or both drugs simultaneously for 18 days. […] Statistical calculation has been done at day 7, the day with most body weight difference in erlotinib monotherapy versus combination groups.

[2] = test system: human NCI-H441 NSCLC tumor cells; conditions: female CD-1 nude mice; for T/C: end of treatment (18 days), compound 100 mg/kg orally 5 days on 2 days off, erlotinib 40 then 30 mg/kg (MTD)
Description: as §1

[3] = test system: luciferase-transfected human EBC-1 NSCLC tumor cells; assay: EBC-1 NSCLC xenograft (luciferase-transfected), combination with B20.4-1; assay type: in vivo
Source text: Formation of lung metastases was reduced and could be only detected at the end of treatment in 3/10 mice. B20.4-1 was active with a T/C of 19% and lung metastases in 4/10 mice could be detected at the end of treatment. […] Detectable formation of lung metastases could be suppressed in 10/10 mice.

[4] = test system: human H1975 NSCLC tumor cells; assay: H1975 NSCLC xenograft, combination with cetuximab; assay type: in vivo; conditions: single agent 100 mg/kg orally daily for three weeks; CD-1 nude mice
Source text: Method: Female CD-1 nude mice (6-8 week old) where subcutaneously injected with human H1975 NSCLC tumor cells and were divided into 4 groups (nine animals in one group) after the tumors were established.

Compound	Dunn's Multiple Comparison Test, Difference in rank sum (body weight change %) ([1]; versus Vehicle)	Dunn's Multiple Comparison Test, Significant? P < 0.05? (body weight change %) ([1]; versus Vehicle)	Dunn's Multiple Comparison Test, Summary (body weight change %) ([1]; versus Vehicle)	T/C [2] [%]	Dunn's Multiple Comparison Test, Difference in rank sum (body weight change %) ([1]; versus erlotinib 30 mg/kg)	Dunn's Multiple Comparison Test, Significant? P < 0.05? (body weight change %) ([1]; versus erlotinib 30 mg/kg)	Dunn's Multiple Comparison Test, Summary (body weight change %) ([1]; versus erlotinib 30 mg/kg)	partial regression ([3]; SCID hairless mice, 20 days of treatment)	lung metastases detected at the end of treatment ([3]; SCID hairless mice, 20 days, ex vivo lung images)	T/C ([3]; end of treatment (20 days), female SCID hairless mice, compound 10 mg/kg orally daily, B20.4-1 20 mg/kg intraperitoneally biweekly) [%]	anti-tumor activity (in words) [4]	tumor growth delay (TGD) ([2]; compound 100 mg/kg, erlotinib 40 then 30 mg/kg, 18 days) [days]
C#Cc1cccc(Nc2ncnc3cc(OCCOC)c(OCCOC)cc23)c1 [erlotinib, reference compound]	6.333	no	ns	82								
CN1CCC(COc2cnc(-c3cccc(Cn4nc(-c5cccc(C#N)c5)ccc4=O)c3)nc2)CC1.Cl.O [“A”, 3-(1-{3-[5-(1-Methyl-piperidin-4-ylmethoxy)-pyrimidin-2-yl]-benzyl}-6-oxo-1,6-dihydro-pyridazin-3-yl)-benzonitrile hydrochloride hydrate]	2.000	no	ns	20	−4.333	no	ns	1/10	3/10	−20	inactive	16
